Data reported in patent US20110313156A1 (BOEHRINGER INGELHEIM INTERNATIONAL GMBH, priority 2008, published 2011).

Biological target: T1, His6-PDK1 (aa 52-556) (Homo sapiens, UniProt O15530)
T1 construct: 15 μL His6-PDK1 (aa 52-556) 3.33 ng/well); host or cells: baculovirus-infected insect cells
T1 sequence (O15530 52-556): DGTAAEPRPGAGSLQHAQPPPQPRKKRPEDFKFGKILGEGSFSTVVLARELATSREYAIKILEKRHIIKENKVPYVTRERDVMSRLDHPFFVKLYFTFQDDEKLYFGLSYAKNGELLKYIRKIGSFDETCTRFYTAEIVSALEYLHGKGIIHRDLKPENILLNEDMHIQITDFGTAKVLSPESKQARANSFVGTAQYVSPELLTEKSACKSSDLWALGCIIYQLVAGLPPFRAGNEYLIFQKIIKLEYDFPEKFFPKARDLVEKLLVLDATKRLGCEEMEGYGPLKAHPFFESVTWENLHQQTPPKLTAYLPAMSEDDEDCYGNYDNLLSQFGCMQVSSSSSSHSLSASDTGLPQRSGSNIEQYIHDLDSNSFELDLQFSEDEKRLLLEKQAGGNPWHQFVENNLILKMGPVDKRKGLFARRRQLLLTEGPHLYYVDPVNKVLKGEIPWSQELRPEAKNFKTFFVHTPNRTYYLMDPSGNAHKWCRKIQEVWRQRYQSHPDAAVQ
Assay: PDK1 kinase assay III (with Tween 20)
Type: biochemical
Conditions: compound at 10 μM; PDK1 kinase assay III (values without asterisk); read-out: % CTL (residual activity of the enzyme relative to DMSO control)
Summary of the method: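 Started with ATP, incubated 90 min at ambient temperature, then stopped with phosphoric acid. Asterisked values come from assay II (24 h or 5 min incubation).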

`Cc1c(C(=O)NCC#Cc2ccc3c(-c4ccc(CN(C)C)cc4)n[nH]c3c2)c(=O)n(Cc2ccc(F)c(F)c2)n1C` [II-8, 2-(3,4-difluorobenzyl)-N-[3-(3-{4-[(dimethylamino)methyl]phenyl}-1H-indazol-6-yl)prop-2-yn-1-yl]-1,5-dimethyl-3-oxo-2,3-dihydro-1H-pyrazole-4-carboxamide] was tested. Which remaining activity at 10 µM did it give?
The remaining activity at 10 µM was 16.5%.

With `CN(C)Cc1ccc(-c2n[nH]c3cc(C#CCNC(=O)c4cncn(Cc5ccc(F)c(F)c5)c4=O)ccc23)cc1` [II-9, 1-(3,4-difluorobenzyl)-N-[3-(3-{4-[(dimethylamino)methyl]phenyl}-1H-indazol-6-yl)prop-2-yn-1-yl]-6-oxo-1,6-dihydropyrimidine-5-carboxamide] as the molecule, how does the remaining activity at 10 µM read?
The remaining activity at 10 µM was 10.7%.

Which remaining activity at 10 µM does the source give for `Cc1c(C(=O)NCC#Cc2ccc3nc(Nc4ccccc4)ncc3c2)c(=O)n(Cc2ccc(F)c(F)c2)n1C` [III-15, 2-(3,4-difluorobenzyl)-1,5-dimethyl-3-oxo-N-{3-[2-(phenylamino)quinazolin-6-yl]prop-2-yn-1-yl}-2,3-dihydro-1H-pyrazole-4-carboxamide] here?
Its remaining activity at 10 µM is 19.1%.

How did the remaining activity at 10 µM turn out when `CN(C)Cc1ccc(Nc2ncc3cc(C#CCNC(=O)c4cncn(Cc5ccc(F)c(F)c5)c4=O)ccc3n2)cc1` [III-16, 1-(3,4-difluorobenzyl)-N-{3-[2-({4-[(dimethylamino)methyl]phenyl}amino)quinazolin-6-yl]prop-2-yn-1-yl}-6-oxo-1,6-dihydropyrimidine-5-carboxamide] was run?
Its remaining activity at 10 µM is 9.5%.

Which remaining activity at 10 µM does the source give for `CN(C)Cc1ccc(Nc2ncc3cc(C#CCNC(=O)c4nccn(Cc5ccc(F)c(F)c5)c4=O)ccc3n2)cc1` [III-17, 4-(3,4-difluorobenzyl)-N-{3-[2-({4-[(dimethylamino)methyl]phenyl}amino)quinazolin-6-yl]prop-2-yn-1-yl}-3-oxo-3,4-dihydropyrazine-2-carboxamide] here?
Its remaining activity at 10 µM is 13.7%.

How did the remaining activity at 10 µM turn out when `Cc1c(C(=O)NCC#Cc2ccc3nc(Nc4ccc(CN(C)C)cc4)ncc3c2)c(=O)n(Cc2ccccc2)n1C` [III-18, 2-benzyl-N-{3-[2-({4-[(dimethylamino)methyl]phenyl}amino)quinazolin-6-yl]prop-2-yn-1-yl}-1,5-dimethyl-3-oxo-2,3-dihydro-1H-pyrazole-4-carboxamide] was run?
The remaining activity at 10 µM was 14.7%.

For `O=C(NC/C=C/c1cc(OC2CCNCC2)c2nc(Nc3ccccc3)ncc2c1)c1cncn(Cc2ccc(F)c(F)c2)c1=O` [III-19, 1-(3,4-difluorobenzyl)-6-oxo-N-{(2E)-3-[2-(phenylamino)-8-(piperidin-4-yloxy)quinazolin-6-yl]prop-2-en-1-yl}-1,6-dihydropyrimidine-5-carboxamide], which remaining activity at 10 µM is on record?
Its remaining activity at 10 µM is 17.5%.

How did the remaining activity at 10 µM turn out when `Cc1c(C(=O)NCC#Cc2ccc3nc(Nc4ccc(CN(C)C)cc4)ncc3c2)c(=O)n(Cc2ccc(F)c(F)c2)n1C` [III-20, 2-(3,4-difluorobenzyl)-N-{3-[2-({4-[(dimethylamino)methyl]phenyl}amino)-quinazolin-6-yl]prop-2-yn-1-yl}-1,5-dimethyl-3-oxo-2,3-dihydro-1H-pyrazole-4-carboxamide] was run?
The remaining activity at 10 µM was 13.7%.

`Cn1c(=O)c(C#CCNC(=O)c2cncn(Cc3ccc(F)c(F)c3)c2=O)cc2cnc(Nc3ccccc3)nc21` [III-22, 1-(3,4-difluorobenzyl)-N-{3-[8-methyl-7-oxo-2-(phenylamino)-7,8-dihydropyrido-[2,3-d]pyrimidin-6-yl]prop-2-yn-1-yl}-6-oxo-1,6-dihydropyrimidine-5-carboxamide] was tested. Which remaining activity at 10 µM did it give?
Its remaining activity at 10 µM is 24.9%.

With `CN(C)Cc1ccc(Nc2ncc3c(F)c(C#CCNC(=O)c4cncn(Cc5ccc(F)c(F)c5)c4=O)ccc3n2)cc1` [III-24, 1-(3,4-difluorobenzyl)-N-{3-[2-({4-[(dimethylamino)methyl]phenyl}amino)-5-fluoroquinazolin-6-yl]prop-2-yn-1-yl}-6-oxo-1,6-dihydropyrimidine-5-carboxamide] as the molecule, how does the remaining activity at 10 µM read?
Its remaining activity at 10 µM is 8.9%.

How did the remaining activity at 10 µM turn out when `Cc1c(C(=O)NCC#Cc2ccc3nc(Nc4ccc(CN(C)C)cc4)ncc3c2F)c(=O)n(Cc2ccc(F)c(F)c2)n1C` [III-25, 2-(3,4-difluorobenzyl)-N-{3-[2-({4-[(dimethylamino)methyl]phenyl}amino)-5-fluoroquinazolin-6-yl]prop-2-yn-1-yl}-1,5-dimethyl-3-oxo-2,3-dihydro-1H-pyrazole-4-carboxamide] was run?
Its remaining activity at 10 µM is 11.7%.

With `CN1CCC(N(C)c2ccc(Nc3ncc4c(F)c(C#CCNC(=O)c5cncn(Cc6ccc(F)c(F)c6)c5=O)ccc4n3)cc2)CC1` [III-26, 1-(3,4-difluorobenzyl)-N-{3-[5-fluoro-2-({4-[methyl(1-methylpiperidin-4-yl)amino]phenyl}amino)quinazolin-6-yl]prop-2-yn-1-yl}-6-oxo-1,6-dihydropyrimidine-5-carboxamide] as the molecule, how does the remaining activity at 10 µM read?
The remaining activity at 10 µM was 12.4%.

How did the remaining activity at 10 µM turn out when `Cc1c(C(=O)NCC#Cc2ccc3nc(Nc4ccc(N(C)C5CCN(C)CC5)cc4)ncc3c2F)c(=O)n(Cc2ccc(F)c(F)c2)n1C` [III-27, 2-(3,4-difluorobenzyl)-N-{3-[5-fluoro-2-({4-[methyl(1-methylpiperidin-4-yl)amino]phenyl}amino)quinazolin-6-yl]prop-2-yn-1-yl}-1,5-dimethyl-3-oxo-2,3-dihydro-1H-pyrazole-4-carboxamide] was run?
Its remaining activity at 10 µM is 12.8%.

For `Cc1c(C#CCNC(=O)c2cncn(Cc3ccc(F)c(F)c3)c2=O)c(=O)n(C(C)C)c2nc(Nc3ccc(N4CCOCC4)cc3)ncc12` [III-29, 1-(3,4-difluorobenzyl)-N-{3-[5-methyl-2-{[4-(morpholin-4-yl)phenyl]amino}-7-oxo-8-(propane-2-yl)-7,8-dihydropyrido[2,3-d]pyrimidin-6-yl]prop-2-yn-1-yl}-6-oxo-1,6-dihydropyrimidine-5-carboxamide], which remaining activity at 10 µM is on record?
The remaining activity at 10 µM was 16.4%.

`CN1CCC(N(C)c2ccc(Nc3ncc4cc(C#CCNC(=O)c5cncn(Cc6ccc(F)c(F)c6)c5=O)ccc4n3)cc2)CC1` [III-30, 1-(3,4-difluorobenzyl)-N-{3-[2-({4-[methyl(1-methylpiperidin-4-yl)amino]phenyl}amino)quinazolin-6-yl]prop-2-yn-1-yl}-6-oxo-1,6-dihydropyrimidine-5-carboxamide] was tested. Which remaining activity at 10 µM did it give?
Its remaining activity at 10 µM is 11.4%.

For `Cc1c(C(=O)NCC#Cc2ccc3nc(Nc4ccc(NC5CCN(C)CC5)c(F)c4)ncc3c2)c(=O)n(Cc2ccc(F)c(F)c2)n1C` [III-32, 2-(3,4-difluorobenzyl)-N-{3-[2-({3-fluoro-4-[(1-methylpiperidin-4-yl)amino]phenyl}amino)quinazolin-6-yl]prop-2-yn-1-yl}-1,5-dimethyl-3-oxo-2,3-dihydro-1H-pyrazole-4-carboxamide], which remaining activity at 10 µM is on record?
The remaining activity at 10 µM was 13.1%.

For `CN1CCC(Nc2ccc(Nc3ncc4cc(C#CCNC(=O)c5cn(C)c(=O)n(Cc6ccc(F)c(F)c6)c5=O)ccc4n3)cc2F)CC1` [III-33, 3-(3,4-difluorobenzyl)-N-{3-[2-({3-fluoro-4-[(1-methylpiperidin-4-yl)amino]phenyl}amino)quinazolin-6-yl]prop-2-yn-1-yl}-1-methyl-2,4-dioxo-1,2,3,4-tetrahydropyrimidine-5-carboxamide], which remaining activity at 10 µM is on record?
The remaining activity at 10 µM was 22.8%.

For `CN1CCC(N(C)c2ccc(Nc3ncc4cc(C#CCNC(=O)c5nccn(Cc6ccc(F)c(F)c6)c5=O)ccc4n3)cc2)CC1` [III-34, 4-(3,4-difluorobenzyl)-N-{3-[2-({4-[methyl(1-methylpiperidin-4-yl)amino]phenyl}amino)quinazolin-6-yl]prop-2-yn-1-yl}-3-oxo-3,4-dihydropyrazine-2-carboxamide], which remaining activity at 10 µM is on record?
Its remaining activity at 10 µM is 10.7%.

For `CN1CCC(Nc2ccc(Nc3ncc4cc(C#CCNC(=O)c5nccn(Cc6ccc(F)c(F)c6)c5=O)ccc4n3)cc2F)CC1` [III-35, 4-(3,4-difluorobenzyl)-N-{3-[2-({3-fluoro-4-[(1-methylpiperidin-4-yl)amino]-phenyl}amino)quinazolin-6-yl]prop-2-yn-1-yl}-3-oxo-3,4-dihydropyrazine-2-carboxamide], which remaining activity at 10 µM is on record?
The remaining activity at 10 µM was 14.9%.

With `CN1CCC(N(C)c2ccc(Nc3ncc4cc(C#CCNC(=O)c5ccnn(Cc6ccc(F)c(F)c6)c5=O)ccc4n3)cc2)CC1` [III-36, 2-(3,4-difluorobenzyl)-N-{3-[2-({4-[methyl(1-methylpiperidin-4-yl)amino]phenyl}amino)quinazolin-6-yl]prop-2-yn-1-yl}-3-oxo-2,3-dihydropyridazine-4-carboxamide] as the molecule, how does the remaining activity at 10 µM read?
Its remaining activity at 10 µM is 13.2%.

How did the remaining activity at 10 µM turn out when `CN(C)Cc1ccc(Nc2ncc3cc(C#CCNC(=O)c4cc(Cl)nn(Cc5ccc(F)c(F)c5)c4=O)ccc3n2)cc1` [III-37, 6-chloro-2(3,4-difluorobenzyl)-N-{3-[2-({4-[(dimethylamino)methyl]phenyl}-amino)quinazolin-6-yl]prop-2-yn-1-yl}-3-oxo-2,3-dihydropyridazine-4-carboxamide] was run?
The remaining activity at 10 µM was 13.8%.

With `CN1CCC(Nc2ccc(Nc3ncc4cc(C#CCNC(=O)c5cc(Cl)nn(Cc6ccc(F)c(F)c6)c5=O)ccc4n3)cc2F)CC1` [III-38, 6-chloro-2(3,4-difluorobenzyl)-N-{3-[2-({3-fluoro-4-[(1-methylpiperidin-4-yl)-amino]phenyl}amino)quinazolin-6-yl]prop-2-yn-1-yl}-3-oxo-2,3-dihydropyridazine-4-carboxamide] as the molecule, how does the remaining activity at 10 µM read?
The remaining activity at 10 µM was 13.2%.

How did the remaining activity at 10 µM turn out when `CCOC(=O)c1ccc(Nc2ncc3cc(C#CCNC(=O)c4cncn(Cc5ccc(F)c(F)c5)c4=O)ccc3n2)cc1` [III-39, ethyl-4-({6-[3-({[1-(3,4-difluorobenzyl)-6-oxo-1,6-dihydropyrimidin-5-yl]carbonyl}amino)prop-1-yn-1-yl]quinazolin-2-yl}amino)benzoate] was run?
The remaining activity at 10 µM was 19%.
